# Data published in US20240109853A1 (Shanghai Yao Yuan Biotechnology Co., Ltd., priority 2020, published 2024).
# Counter-ions that a name gives are not always drawn.
# Target: ALPK1 (Homo sapiens (Human), UniProt Q96QP1)
# Experiment: ALPK1 in vitro kinase assay (HTRF of TIFA phosphorylation)
# Assay type: biochemical
# Settings: not given
# Excerpt: In embodiments, a compound of Formula I, or a subembodiment described herein, is an inhibitor of ALPK1 as measured, for example, in an in vitro kinase assay, or an assay designed to measure the activation of downstream targets of ALPK1 pathway activation, for example NFkB transcriptional activation and the secretion of proinflammatory cytokines and chemokines, such as IL-8, which is also referred to as CXCL-8. In general, the computer program XL fit was used for data analysis, including non-linear regression analysis. The half maximal inhibitory concentration (IC50) was used as the measure of a compound's effectiveness in the assays. IC50 values were determined using the following logistic equation Y=min+(max−min)/(1+(X/IC50^−hillslpoe), where Y is the value at the compound concentration, X. The concentration response curve fitting was conducted using GraphPad Prism version 6.00 software.
# ALPK1 kinase activity was measured in an in vitro assay using ADP-Heptose as the ALPK1 ligand and activator of its kinase activity and TIFA protein as the ALPK1 phosphorylation substrate. Since phosphorylated TIFA proteins oligomerize, Homogeneous Time-Resolved Fluorescence (HTRF) was used to measure protein:protein interaction between HA-tagged TIFA proteins as an indicator of TIFA phosphorylation.
# In brief, dose-response studies were performed with HEK293 cells cultured in Dulbecco's Modified Eagle Medium (DMEM) supplemented 10% fetal bovine serum (FBS, Hyclone™) containing antibiotics (pen/strep, G418) in 384-well assay plates. Each well contained 0.1 mg TIFA, ALPK1 (2 nM final concentration in reaction mixture) and kinase buffer (100 mM of HEPES pH 7.4, 4 mM DTT, 40 mM MgCl2, 20 mM of β-Glycerol phosphate disodium salt, 0.4 mM of Na3VO4, 0.16 mg/mL). Titrations of the test compounds were prepared in dimethylsulphoxide (DMSO). The reaction was initiated by addition of ATP and ADP-Heptose.
# For HTRF, samples were incubated with a Tb cryptate-labeled anti-HA antibody for capturing HA-tagged proteins according to the manufacturer's instructions (PerkinElmer™, CisBio™) and the fluorescence signal was quantified (Tecan Infinite F NANO+). HTRF signals were calculated as the HTRF ratio (ratio of fluorescence measured at 665 nm and 620 nm)×104 (thereby using the signal at 620 nm as an internal standard).
# IC50 values were determined using 3- or 4-parameter logistic equation using GraphPad Prism version 6.00. The reference compound, A027, was used as a positive control for each plate.
# ALPK1, sequence (Q96QP1 whole entry): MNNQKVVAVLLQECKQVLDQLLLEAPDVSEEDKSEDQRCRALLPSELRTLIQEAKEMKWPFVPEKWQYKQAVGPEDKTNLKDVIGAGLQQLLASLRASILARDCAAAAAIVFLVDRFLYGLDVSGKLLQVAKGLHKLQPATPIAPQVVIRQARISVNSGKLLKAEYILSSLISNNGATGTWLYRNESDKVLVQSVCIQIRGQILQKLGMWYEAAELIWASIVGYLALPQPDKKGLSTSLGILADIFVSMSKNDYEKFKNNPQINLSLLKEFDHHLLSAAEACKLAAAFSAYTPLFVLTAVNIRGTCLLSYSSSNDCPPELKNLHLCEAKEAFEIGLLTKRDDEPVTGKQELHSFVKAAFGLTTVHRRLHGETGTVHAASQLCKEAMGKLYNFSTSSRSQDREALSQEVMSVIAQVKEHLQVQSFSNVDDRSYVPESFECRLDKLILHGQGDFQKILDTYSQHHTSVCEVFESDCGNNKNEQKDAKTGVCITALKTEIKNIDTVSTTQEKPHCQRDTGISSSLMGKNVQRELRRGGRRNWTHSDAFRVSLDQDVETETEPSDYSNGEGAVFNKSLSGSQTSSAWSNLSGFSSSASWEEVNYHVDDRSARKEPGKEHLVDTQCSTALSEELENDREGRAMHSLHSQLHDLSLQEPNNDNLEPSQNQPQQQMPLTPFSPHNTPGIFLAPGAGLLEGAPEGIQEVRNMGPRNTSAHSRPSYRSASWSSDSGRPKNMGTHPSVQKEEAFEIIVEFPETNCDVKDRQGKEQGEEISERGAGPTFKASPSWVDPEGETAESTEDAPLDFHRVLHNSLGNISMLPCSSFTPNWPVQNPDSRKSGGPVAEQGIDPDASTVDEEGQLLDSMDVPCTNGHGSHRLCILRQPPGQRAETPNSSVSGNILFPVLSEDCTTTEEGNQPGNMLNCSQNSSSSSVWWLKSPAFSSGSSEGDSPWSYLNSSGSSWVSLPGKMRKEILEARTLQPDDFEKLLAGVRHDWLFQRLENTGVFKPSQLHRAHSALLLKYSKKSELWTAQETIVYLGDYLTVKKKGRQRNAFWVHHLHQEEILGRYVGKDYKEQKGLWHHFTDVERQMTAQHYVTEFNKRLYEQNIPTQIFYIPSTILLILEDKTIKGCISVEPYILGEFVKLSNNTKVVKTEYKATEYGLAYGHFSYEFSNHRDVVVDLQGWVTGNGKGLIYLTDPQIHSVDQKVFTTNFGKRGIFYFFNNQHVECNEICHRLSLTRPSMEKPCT
row,SMILES,IC50 [nM]
1,"CNC(=O)Nc1nc(C(C)(C)c2ccc(OC)cc2)cs1 [Example A143, 1-(4-(2-(4-methoxyphenyl)propan-2-yl)thiazol-2-yl)-3-methylurea]",53
2,"COc1ccc(C(C)(C)c2csc(NC(=O)NCc3ccc(N4CCC(N)C4)nc3)n2)cc1 (stereo not drawn) [Example A199, 1-((6-(3-aminopyrrolidin-1-yl)pyridin-3-yl)methyl)-3-(4-(2-(4-methoxyphenyl)propan-2-yl)thiazol-2-yl)urea]",34
3,"C#C[C@](C)(c1ccc(OC)cc1)c1csc(NC(=O)N2CC(CO)C2)n1 [Example A255, (R)-3-(hydroxymethyl)-N-(4-(2-(4-methoxyphenyl)but-3-yn-2-yl)thiazol-2-yl)azetidine-1-carboxamide]",688

# Same assay, conditions: ALPK1 2 nM, TIFA substrate, ADP-Heptose activator, HTRF readout
row,SMILES,IC50 [nM]
1,"COCC(C)(c1ccc(Br)cc1)c1csc(NC(=O)c2c(F)cc(N3CCNCC3)cc2F)n1 (stereo not drawn) [Example C014, N-(4-(2-(4-bromophenyl)-1-methoxypropan-2-yl)thiazol-2-yl)-2,6-difluoro-4-(piperazin-1-yl)benzamide]",13
2,"COc1ccc(C(C)(C)c2csc(NC(=O)c3ccc(C4CCNCC4)cc3)n2)cc1 [Example B047, N-(4-(2-(4-methoxyphenyl)propan-2-yl)thiazol-2-yl)-4-(piperidin-4-yl)benzamide hydrochloride]",128
3,"COc1ccc(C(C)(C)c2csc(NC(=O)c3ccc(N4CCNCC4)cn3)n2)cc1 [Example B044, N-(4-(2-(4-methoxyphenyl)propan-2-yl)thiazol-2-yl)-5-(piperazin-1-yl)picolinamide]",213
4,"COc1ccc(C(C)(C)c2csc(NC(=O)c3ccc(NC4CCN(C)CC4)cc3)n2)cc1 [Example B028, N-(4-(2-(4-methoxyphenyl)propan-2-yl)thiazol-2-yl)-4-((1-methylpiperidin-4-yl)amino)benzamide]",271
5,"C#CC(C)(c1ccc(Cl)cc1)c1csc(NC(=O)c2ccc(N3CCNCC3)nc2)n1 (stereo not drawn) [Example B061, N-(4-(2-(4-chlorophenyl)but-3-yn-2-yl)thiazol-2-yl)-6-(piperazin-1-yl)nicotinamide]",167
6,"C#C[C@@](C)(c1ccc(Cl)cc1)c1csc(NC(=O)c2c(F)cc(N3CCNCC3CO)cc2F)n1 (stereo in doubt) [Example B097, N-[4-[1-(4-chlorophenyl)-1-methyl-prop-2-ynyl]thiazol-2-yl]-2,6-difluoro-4-[2-(hydroxymethyl)piperazin-1-yl]benzamide]",119
7,"CN(C)CCNc1ccc(C(=O)Nc2nc(C(C)(C)c3ccc(Br)cc3)cs2)cn1 [Example B055, N-(4-(2-(4-bromophenyl)propan-2-yl)thiazol-2-yl)-6-((2-(dimethylamino)ethyl)amino)nicotinamide]",125
8,"C#C[C@@](C)(c1ccc(Cl)cc1)c1csc(NC(=O)c2c(F)cc(N3CCC(N)C3)cc2F)n1 (stereo in doubt) [Example B088, 4-(3-aminopyrrolidin-1-yl)-N-(4-(2-(4-chlorophenyl)but-3-yn-2-yl)thiazol-2-yl)-2,6-difluorobenzamide]",42
9,"O=C(Nc1nc(C2(c3ccc(Br)cc3)CCCC2)cs1)c1c(F)cc(N2CCNCC2)cc1F [Example C006, N-(4-(1-(4-bromophenyl)cyclopentyl)thiazol-2-yl)-2,6-difluoro-4-(piperazin-1-yl)benzamide]",43
10,"COc1ccc(C(C)(C)c2csc(NC(=O)c3ccc(OCCN4CCNCC4)cc3)n2)cc1 [Example B024, N-(4-(2-(4-methoxyphenyl)propan-2-yl)thiazol-2-yl)-4-(2-(piperazin-1-yl)ethoxy)benzamide]",116
11,"COCCOc1cc(C(=O)Nc2nc(C(C)(C)c3ccc(OC)cc3)cs2)ccc1N1CCNCC1 [Example B057, 3-(2-methoxyethoxy)-N-(4-(2-(4-methoxyphenyl)propan-2-yl)thiazol-2-yl)-4-(piperazin-1-yl)benzamide hydrochloride]",103
12,"C#C[C@](C)(c1csc(NC(=O)c2c(F)cc(N3CCNCC3)cc2F)n1)c1ccc(Cl)cc1F (stereo in doubt) [Example C044, N-(4-(2-(4-chloro-2-fluorophenyl)but-3-yn-2-yl)thiazol-2-yl)-2,6-difluoro-4-(piperazin-1-yl)benzamide]",25
13,"CC(C)(c1ccc(F)cc1)c1csc(NC(=O)c2c(F)cc(N3CCNCC3)cc2F)n1 [Example C005, 2,6-difluoro-N-(4-(2-(4-fluorophenyl)propan-2-yl)thiazol-2-yl)-4-(piperazin-1-yl)benzamide]",6
14,"C#CC(C)(c1ccc(Cl)cc1)c1csc(NC(=O)c2ccc(N3CCNCC3)c(OC)c2)n1 (stereo not drawn) [Example B066, N-(4-(2-(4-chlorophenyl)but-3-yn-2-yl)thiazol-2-yl)-3-methoxy-4-(piperazin-1-yl)benzamide]",184
15,"CC(c1ccc(C(=O)Nc2nc(C(C)(C)c3ccc(Br)cc3)cs2)cc1)N1CCNCC1 (stereo not drawn) [Example B019, N-(4-(2-(4-bromophenyl)propan-2-yl)thiazol-2-yl)-4-(1-(piperazin-1-yl)ethyl)benzamide]",98
16,"CC(C)(c1ccc(Br)cc1)c1csc(NC(=O)c2ccc(N3CCNCC3)cc2)n1 [Example B016, N-(4-(2-(4-bromophenyl)propan-2-yl)thiazol-2-yl)-4-(piperazin-1-yl)benzamide]",60
17,"C#C[C@@](C)(c1ccc(Cl)cc1)c1nc(NC(=O)c2c(F)cc(N3CCNCC3)cc2F)sc1Cl (stereo in doubt) [Example C050, N-(5-chloro-4-(2-(4-chlorophenyl)but-3-yn-2-yl)thiazol-2-yl)-2,6-difluoro-4-(piperazin-1-yl)benzamide]",923
18,"COc1ccc(C(C)(C)c2csc(NC(=O)c3ccc(N4CCNCC4)nc3)n2)cc1 [Example B042, N-(4-(2-(4-methoxyphenyl)propan-2-yl)thiazol-2-yl)-6-(piperazin-1-yl)nicotinamide]",86
19,"COC[C@@](C)(c1ccc(Cl)cc1)c1csc(NC(=O)c2c(F)cc(N3CCNCC3)cc2F)n1 [Example C025, (S)-N-(4-(2-(4-chlorophenyl)-1-methoxypropan-2-yl)thiazol-2-yl)-2,6-difluoro-4-(piperazin-1-yl)benzamide]",8
20,"COc1ccc(C(C)(C)c2csc(NC(=O)c3ccc(C4(O)CCNCC4)cc3)n2)cc1 [Example B049, 4-(4-hydroxypiperidin-4-yl)-N-(4-(2-(4-methoxyphenyl)propan-2-yl)thiazol-2-yl)benzamide hydrochloride]",459
21,"Cc1ccc(C(C)(C)c2csc(NC(=O)c3ccc(CN4CCN(CCO)CC4)nc3)n2)cc1 [Example B059, 6-((4-(2-hydroxyethyl)piperazin-1-yl)methyl)-N-(4-(2-(p-tolyl)propan-2-yl)thiazol-2-yl)nicotinamide]",159
22,"C#CC(C)(c1ccc(OC)cc1)c1csc(NC(=O)c2c(F)cc(N3CCNC(CO)C3)cc2F)n1 (stereo not drawn) [Example B084, 2,6-difluoro-4-(3-(hydroxymethyl)piperazin-1-yl)-N-(4-(2-(4-methoxyphenyl)but-3-yn-2-yl)thiazol-2-yl)benzamide]",28
23,"COc1ccc(C(C)(C)c2csc(NC(=O)c3ccc(N4CCNCC4)cc3)n2)cc1 [Example B001, N-(4-(2-(4-methoxyphenyl)propan-2-yl)thiazol-2-yl)-4-(piperazin-1-yl)benzamide]",123
24,"COc1ccc(C(C)(C)c2csc(NC(=O)c3ccc(CN4CCN(CCO)CC4)cc3)n2)cc1 [Example B034, 4-((4-(2-hydroxyethyl)piperazin-1-yl)methyl)-N-(4-(2-(4-methoxyphenyl)propan-2-yl)thiazol-2-yl)benzamide]",44
25,"C#C[C@@](C)(c1ccc(Cl)cc1)c1csc(NC(=O)c2c(F)cc(N3CCN(CCO)CC3)cc2F)n1 [Example C023, (S)-N-(4-(2-(4-chlorophenyl)but-3-yn-2-yl)thiazol-2-yl)-2,6-difluoro-4-(4-(2-hydroxyethyl)piperazin-1-yl)benzamide]",60
26,"C#CC(C)(c1ccc(Cl)cc1)c1csc(NC(=O)c2c(F)ccc(OC)c2F)n1 (stereo not drawn) [Example B064, N-(4-(2-(4-chlorophenyl)but-3-yn-2-yl)thiazol-2-yl)-2,6-difluoro-3-methoxybenzamide]",54
27,"COc1ccc(C(C)(C)c2csc(NC(=O)c3cccc(N4CCN(CCO)CC4)c3)n2)cc1 [Example B007, 3-(4-(2-hydroxyethyl)piperazin-1-yl)-N-(4-(2-(4-methoxyphenyl)propan-2-yl)thiazol-2-yl)benzamide]",230
